{"source": "patent US20240132518A1", "about": "“CEPHALOSPORIN ANTIBACTERIAL COMPOUND AND PREPARATION METHOD THEREFOR” (priority 2021, published 2024)", "key": {"[1]": {"test_system": "Control strain (Pseudomonas aeruginosa) ATCC 27853", "test": "Antibacterial MIC assay (ID-CAMHB), control strain Pseudomonas aeruginosa", "assay_type": "cell-based", "conditions": "ATCC27853, ID-CAMHB, control strain ATCC 27853, read-out: MIC", "description": "(§1) 1. The test compounds were dissolved in sterile normal saline, vortexed for uniformly mixing, and diluted in a 2-fold dilution with the sterile normal saline (11 concentration points in total). The test concentration range was 32-0.031 μg/mL, and two duplicate wells were set for each concentration. Additional wells without drug dosing were set as growth controls.\n(§2) 2. 4 μL of the diluent was added to 196 μL of the bacterial suspension in a 96-well plate (the bacterial count in the bacterial suspension was 2-8×10^5 colony forming units/mL).\n(§3) The minimum inhibitory concentration (MIC) assay was performed with reference to the Clinical and Laboratory Standards Institute (CLSI) guidelines."}, "[2]": {"test": "Pharmacokinetic study in ICR mice", "assay_type": "in vivo", "conditions": "plasma; for AUC(0-inf) / AUC(0-t) / Cmax / Tmax / half-life: both sexes, mouse, sc", "description": "The formulation for administration was prepared on ice. A proper amount of the test compound was precisely weighed out, and a 90% volume of normal saline was slowly added. The mixture was ultrasonically stirred in an ice-water bath until no large pieces existed. After the mixture was well mixed, a 1 M NaOH solution was added in small portions using a pipette.\n• Species and strain: ICR mice • Animal grade: SPF • Animal source: Medicilon: 999M-018\nAdministration by subcutaneous injection: 3 mice/sex/time point; blood samples were collected at 9 time points: 0.083 h, 0.25 h, 0.5 h, 1 h, 2 h, 4 h, 6 h, 8 h and 24 h after administration. The collected blood samples were placed in EDTA-K2 anticoagulation blood collection tubes. The collected whole blood was placed on ice and centrifuged at 6800 g at 2-8° C. for 6 min to separate plasma within 1 h. After the centrifugation, the plasma was transferred to a centrifuge tube to which a plasma stabilizer had been added in advance (plasma:concentrated phosphoric acid=100:0.2; for example, 1 μL of 10% concentrated phosphoric acid was added to 50 μL of plasma). All the animals were subjected to careful clinical observation before administration and at each of the blood collection time points after administration, and the adverse reaction symptoms in the animals were recorded."}, "[3]": {"test_system": "Control strain (Escherichia coli) ATCC 25922", "test": "Antibacterial MIC assay (ID-CAMHB), control strain Escherichia coli", "assay_type": "cell-based", "conditions": "ATCC25922, ID-CAMHB, control strain ATCC 25922, read-out: MIC", "description": "as §1, §2, §3"}, "[4]": {"test_system": "Carbapenem-resistant Acinetobacter baumannii (CRAB)", "test": "Antibacterial MIC assay (ID-CAMHB), carbapenem-resistant Acinetobacter baumannii", "assay_type": "cell-based", "description": "as §1, §2, §3"}, "[5]": {"test": "Pharmacokinetic study in cynomolgus monkeys", "assay_type": "in vivo", "conditions": "cynomolgus monkey, plasma, 10 mg/kg single intravenous infusion, individual animals", "description": "An appropriate amount of a test compound was weighed precisely and added to a container, and 0.9% sodium chloride injection and 0.2 M NaOH solution were added thereto in an ice bath until the test compound was completely dissolved, so that a sample solution at a concentration of 2 mg/mL was obtained followed by storage at 2-8° C. for later use.\n• Species and strain: cynomolgus monkey • Animal grade: general grade • Animal source: Guangxi Xiongsen Primate Experimental Animal Breeding Development Co., Ltd. • Number of the using of laboratory animal: SYXK (Su) 2019-0012\n6 cynomolgus monkeys (half male and half female) were selected and randomly divided into 3 groups with 1 animal/sex in each group. The cynomolgus monkeys were administered with the test sample at a dose of 10 mg/kg by the single intravenous infusion. Blood samples were collected from each group of animals at the following time points: before administration, and 5 min, 15 min, 0.5 h, 1 h, 2 h, 4 h, 6 h, and 8 h after administration. In the test, the concentration of each test compound in the plasma of the cynomolgus monkey was detected by the LC-MS/MS method, and the lower limits of quantification of the analysis methods for the plasma samples were all 1 μg/mL. The plasma concentration data were analyzed by the non-compartmental analysis (NCA) of the analysis software for pharmacokinetic data, WinNonlin, pharmacokinetic parameters were calculated, and pharmacokinetic characteristics of the test compounds in cynomolgus monkeys after administration were investigated, with the results shown in the following table."}, "[6]": {"test_system": "Carbapenem-resistant Pseudomonas aeruginosa (CRPA)", "test": "Antibacterial MIC assay (ID-CAMHB), carbapenem-resistant Pseudomonas aeruginosa", "assay_type": "cell-based", "description": "as §1, §2, §3"}, "[7]": {"test_system": "Carbapenem-resistant Enterobacteriaceae (CRE, Klebsiella pneumoniae)", "test": "Antibacterial MIC assay (ID-CAMHB), carbapenem-resistant Enterobacteriaceae", "assay_type": "cell-based", "description": "as §1, §2, §3"}, "[8]": {"conditions": "10 mg/kg subcutaneous injection"}, "[9]": {"conditions": "100 mg/kg subcutaneous injection"}, "[10]": {"conditions": "both sexes, cynomolgus, iv, 10 mg/kg"}}, "note": "Where two headings read alike, the source gives them in different places.", "data": [{"smiles": "CC(C)(O/N=C(\\C(=O)N[C@@H]1C(=O)N2C(C(=O)[O-])=C(C[N+]3(CCCN(CCCNC(=O)c4ccc(O)c(O)c4Cl)C(=O)c4ccc(O)c(O)c4Cl)CCCC3)CS[C@H]12)c1csc(N)n1)C(=O)O", "note": "[Compound 3]", "values": [{"measurement": "MIC", "setting": "[1]", "result": 0.25, "unit": "µg/mL"}, {"measurement": "AUMC0-inf", "setting": "[2]; [8]", "result": 86.9, "unit": "h · h · ug · mL^−1"}, {"measurement": "AUMC0-t", "setting": "[2]; [8]", "result": 80.3, "unit": "h · h · ug · mL^−1"}, {"measurement": "Kel", "setting": "[2]; [8]", "result": 1.04, "unit": "h⁻¹"}, {"measurement": "MRTPO", "setting": "[2]; [8]", "result": 47.4, "unit": "min"}, {"measurement": "AUMC0-inf", "setting": "[2]; [9]", "result": 880.4, "unit": "h · h · ug · mL^−1"}, {"measurement": "AUMC0-t", "setting": "[2]; [9]", "result": 871.4, "unit": "h · h · ug · mL^−1"}, {"measurement": "Kel", "setting": "[2]; [9]", "result": 1.64, "unit": "h⁻¹"}, {"measurement": "MRTPO", "setting": "[2]; [9]", "result": 47.8, "unit": "min"}, {"measurement": "AUC(0-inf)", "setting": "[2]; [8]", "result": 110, "unit": "µg·h/mL"}, {"measurement": "AUC(0-t)", "setting": "[2]; [8]", "result": 109, "unit": "µg·h/mL"}, {"measurement": "Cmax", "setting": "[2]; [8]", "result": 114, "unit": "µg/mL"}, {"measurement": "Tmax", "setting": "[2]; [8]", "result": 15, "unit": "min"}, {"measurement": "half-life", "setting": "[2]; [8]", "result": 39.9, "unit": "min"}, {"measurement": "AUC(0-inf)", "setting": "[2]; [9]", "result": 1100, "unit": "µg·h/mL"}, {"measurement": "AUC(0-t)", "setting": "[2]; [9]", "result": 1100, "unit": "µg·h/mL"}, {"measurement": "Cmax", "setting": "[2]; [9]", "result": 936, "unit": "µg/mL"}, {"measurement": "Tmax", "setting": "[2]; [9]", "result": 30, "unit": "min"}, {"measurement": "half-life", "setting": "[2]; [9]", "result": 25.3, "unit": "min"}, {"measurement": "MIC", "setting": "[3]", "result": 0.0625, "unit": "µg/mL"}, {"measurement": "MIC", "setting": "[4]; strain FDA-CDC AR-BANK#0036, AMR gene strB, OXA-65, OXA-24, strA, sul2, read-out: MIC", "result": 0.25, "unit": "µg/mL"}, {"measurement": "MIC", "setting": "[4]; strain FDA-CDC AR-BANK#0052, AMR gene OXA-58, OXA-100, sul2", "result": 0.125, "unit": "µg/mL"}, {"measurement": "MIC", "setting": "[4]; strain FDA-CDC AR-BANK#0063, AMR gene OXA-23, OXA-65, OXA-24, sul2, read-out: MIC", "result": "> 32", "unit": "µg/mL"}, {"measurement": "MIC", "setting": "[4]; strain FDA-CDC AR-BANK#0070, AMR gene OXA-58, OXA-100, sul2", "result": 0.125, "unit": "µg/mL"}, {"measurement": "MIC", "setting": "[4]; strain FDA-CDC AR-BANK#0101, AMR gene strB, OXA-65, OXA-24, strA, sul2, read-out: MIC", "result": 0.5, "unit": "µg/mL"}, {"measurement": "AUC(0-inf)", "setting": "[5]; [10]", "result": 166, "unit": "µg·h/mL"}, {"measurement": "AUC(0-t)", "setting": "[5]; [10]", "result": 149, "unit": "µg·h/mL"}, {"measurement": "clearance", "setting": "[5]; [10]", "result": 1, "unit": "mL/min/kg"}, {"measurement": "half-life", "setting": "[5]; [10]", "result": 154, "unit": "min"}, {"measurement": "Cmax", "setting": "[5]; both sexes, cynomolgus, iv, 10 mg/kg, read-out: Cmax", "result": 55.2, "unit": "µg/mL"}, {"measurement": "MRT", "setting": "[5]; both sexes, cynomolgus, iv, 10 mg/kg, read-out: MRT", "result": 150, "unit": "min"}, {"measurement": "Vd", "setting": "[5]; both sexes, cynomolgus, iv, 10 mg/kg, read-out: Vd", "result": 0.223, "unit": "L/kg"}, {"measurement": "Tmax", "setting": "[5]; both sexes", "result": 4.8, "unit": "min"}, {"measurement": "AUC last", "setting": "[5]; 10 mg/kg", "result": 140.08, "unit": "µg·h/mL"}, {"measurement": "AUCinf", "setting": "[5]; 10 mg/kg", "result": 153.20, "unit": "µg·h/mL"}, {"measurement": "CL", "setting": "[5]; 10 mg/kg", "result": 1.088, "unit": "mL/min/kg"}, {"measurement": "Cmax", "setting": "[5]; 10 mg/kg", "result": 48.60, "unit": "µg/mL"}, {"measurement": "MRT", "setting": "[5]; 10 mg/kg", "result": 149, "unit": "min"}, {"measurement": "Vd", "setting": "[5]; 10 mg/kg", "result": 0.21311, "unit": "L/kg"}, {"measurement": "t1/2", "setting": "[5]; 10 mg/kg", "result": 136, "unit": "min"}, {"measurement": "MIC", "setting": "[6]; strain FDA-CDC AR-BANK#0439, AMR gene aac(6′)-Il, aadA1b, BCR1, IMP-18, OXA-50", "result": 0.125, "unit": "µg/mL"}, {"measurement": "MIC", "setting": "[6]; strain FDA-CDC AR-BANK#0441, AMR gene KPC-2, read-out: MIC", "result": 2, "unit": "µg/mL"}, {"measurement": "MIC", "setting": "[6]; strain FDA-CDC AR-BANK#0444, AMR gene aac(6′)-Il, dfrB5, OXA-4, tet(G), VIM-2, read-out: MIC", "result": 2, "unit": "µg/mL"}, {"measurement": "MIC", "setting": "[6]; strain FDA-CDC AR-BANK#0457, AMR gene aadA6, VIM-2, read-out: MIC", "result": 0.25, "unit": "µg/mL"}, {"measurement": "MIC", "setting": "[7]; strain FDA-CDC AR-BANK#0361, AMR gene TEM-1, SHV-12, KPC-2", "result": 0.5, "unit": "µg/mL"}, {"measurement": "MIC", "setting": "[7]; strain FDA-CDC AR-BANK#0362, AMR gene TEM-1, SHV-11, KPC-2", "result": 0.125, "unit": "µg/mL"}, {"measurement": "MIC", "setting": "[7]; strain FDA-CDC AR-BANK#0363, AMR gene TEM-1, SHV-12, KPC-2", "result": 0.125, "unit": "µg/mL"}, {"measurement": "MIC", "setting": "[7]; strain FDA-CDC AR-BANK#0438, AMR gene aph(3′)-Ia, dfrA12, KPC-3, OmpK35, oqxA, oqxB, SHV-11", "result": 0.25, "unit": "µg/mL"}, {"measurement": "MIC", "setting": "[7]; strain FDA-CDC AR-BANK#0453, AMR gene KPC-3, OmpK35, oqxA, oqxB, SHV-11, TEM-1B", "result": 0.5, "unit": "µg/mL"}]}]}
